These results are taken from patent US10214492B2, “Heterocyclic inhibitors of MCT4” (Vettore, LLC, priority 2016, dated 2019).

One series has as its target MCT1 (Homo sapiens (Human), UniProt P53985). In words: Assay 4: MCT1-mediated lactate transport in BT20 breast cancer cells. The series is classed as cell-based. The conditions noted are these: Table 27. The gist of the method: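 BT20 cells loaded with BCECF-AM (30 mM DMSO stock) for 5 min at 37° C, washed and resuspended in Tyrode's Solution pH 7.4. Lactate uptake tracked via BCECF intracellular pH signal after adding 10 mM L-lactate.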

A short description of series [1]: Metabolic stability in mouse liver microsomes (in vitro t1/2). The series is classed as in vitro ADME. The note with it: for Mouse microsome t1/2, min / half-life at 2 µM: mouse liver microsomes 0.5 mg/mL, 2 μM compound; for Mouse microsome % 60 min: mouse liver microsomes; for half-life at 2 µM: read-out: Mouse microsome t1/2, min. The essentials: (§1)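 Liver microsomes (0.5 mg/mL final) incubated with test compound at 2 μM final plus NADPH; samples taken at 0, 15, 30, 45 and 60 min. Parent remaining quantified by LC-MS/MS; k from ln(% remaining) vs time regression, in vitro t1/2 = −0.693/k.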
Background: Liver microsomes are vesicles of endoplasmic reticulum, rich in cytochrome P450 enzymes.

The nature of series [2]: Adjuvant-induced arthritis model in rat: Difference of Weight Bearing test (DWB). The series is classed as in vivo. The conditions noted are these: SD rat, CFA-induced arthritis; PO 3 days post CFA; compared to Dexamethasone.
Series [3] in a line: Metabolic stability in human liver microsomes (in vitro t1/2). The note with it: for half-life at 2 µM: human liver microsomes 0.5 mg/mL, 2 μM compound, read-out: Human microsome t1/2, min; for Human microsome % 60 min: human liver microsomes. The class given is in vitro ADME. The essentials:
as §1

The target in the next series is MCT4 (Homo sapiens (Human), UniProt O15427). The experiment in a line: Assay 3: MCT4-mediated lactate transport in MDA-MB-231 breast cancer cells. The class given is cell-based. The note with it: MDA-MB-231 cells; lactate transport. The gist of the method: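 MDA-MB-231 cells loaded with BCECF-AM, 5 min at 37° C, washed and resuspended in Tyrode's Solution, pH 7.4. MCT4 lactate/proton symport followed as the intracellular pH change reported by BCECF fluorescence.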
MCT4, sequence (O15427 whole entry, looked up): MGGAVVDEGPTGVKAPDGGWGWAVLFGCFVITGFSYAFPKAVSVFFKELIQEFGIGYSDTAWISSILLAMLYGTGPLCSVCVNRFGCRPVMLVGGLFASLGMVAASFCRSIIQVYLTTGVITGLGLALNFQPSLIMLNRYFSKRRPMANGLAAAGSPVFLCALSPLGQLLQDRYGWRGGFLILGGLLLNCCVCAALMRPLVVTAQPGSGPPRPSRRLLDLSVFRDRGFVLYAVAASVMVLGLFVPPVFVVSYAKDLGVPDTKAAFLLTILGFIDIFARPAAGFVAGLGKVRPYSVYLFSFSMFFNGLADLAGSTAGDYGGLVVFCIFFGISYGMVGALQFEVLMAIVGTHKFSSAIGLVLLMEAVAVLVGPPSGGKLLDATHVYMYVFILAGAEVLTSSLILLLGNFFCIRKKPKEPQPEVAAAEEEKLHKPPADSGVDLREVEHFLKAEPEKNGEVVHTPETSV
MCT4, sequence (P35613 whole entry partner, looked up): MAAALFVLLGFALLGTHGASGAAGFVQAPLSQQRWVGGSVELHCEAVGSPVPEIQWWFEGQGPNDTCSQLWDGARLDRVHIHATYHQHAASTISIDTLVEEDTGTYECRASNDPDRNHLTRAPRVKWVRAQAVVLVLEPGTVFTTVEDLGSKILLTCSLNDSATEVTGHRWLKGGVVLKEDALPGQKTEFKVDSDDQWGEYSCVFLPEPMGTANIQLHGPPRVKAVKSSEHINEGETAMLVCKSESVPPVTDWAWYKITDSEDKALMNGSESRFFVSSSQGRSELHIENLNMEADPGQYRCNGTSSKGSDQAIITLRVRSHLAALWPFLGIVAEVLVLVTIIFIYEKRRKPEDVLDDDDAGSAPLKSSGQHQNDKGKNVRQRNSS

Series [4] in a line: Pharmacokinetic assay in rat (IV 3 mg/kg, PO 10 mg/kg). The conditions noted are these: Male Sprague-Dawley rat; for Rat F: oral bioavailability; for Rat F / half-life: PO 10 mg/kg; for half-life / Vd: plasma; for half-life: read-out: Rat t1/2 (converted); for Vd: volume of distribution, read-out: Rat Vss. The series is classed as in vivo. The text has this:
(§2) The following are assays that may be used to evaluate the pharmacokinetic properties of Formula (I) in mouse or rat. The assays follow a common procedure recited below.
(§3) 1. […] For PO (oral gavage), DMSO/PEG400 (10:90). Formulations freshly prepared on the day of dosing or prior to dosing. Storage at room temperature.
(§4) 2. Test Species: For Mouse: Male CD1 strain, approximately 6-8 weeks in age, approximately 20-30 g. For Rat: Male Sprague-Dawley strain, approximately 6-8 weeks in age, approximately 200-300 g.
(§5) 3. Dose Level: For IV, 3 mg/kg. For PO, 10 mg/kg.
(§6) 4. Number of animals: 3 per assay.
(§7) 5. PK time points: For IV (plasma): 5 min, 15 min, 1, 2, 4, 6, 8, 24 h post dose. For PO (plasma): 15 min, 30 min, 1, 2, 4, 6, 8, 24 h post dose.
(§8) 6. Blood Sample Collection and Processing. Blood was collected (˜0.2 mL per time point) from jugular vein. Blood of each sample was transferred into plastic micro centrifuge tubes containing anticoagulant of EDTA-K2. Blood samples were centrifuged at 2,000 g for 5 minutes at 4° C. to obtain plasma.
(§9) 7. Samples Analysis: Plasma samples were analyzed using LC/MS/MS method, and pharmacokinetic parameters (half-life: t1/2; oral bioavailability: F; volume of distribution: Vss).

Series [5] is described as follows: Adjuvant-induced arthritis model in rat: Mechanical Allodynia test (MA, Von Frey). The class given is in vivo. The conditions noted are these: SD rat, CFA-induced arthritis; PO 3 days post CFA; compared to Dexamethasone.
The nature of series [6]: Metabolic stability in rat liver microsomes (in vitro t1/2). The class given is in vitro ADME. The conditions noted are these: for half-life at 2 µM: read-out: Rat microsome t1/2, min; for Rat microsome % 60 min: rat liver microsomes. The procedure: The following are assays that may be used to evaluate the metabolic stability of compounds of Formula (I) in human, rat, or mouse microsomes. The assays follow a common procedure recited below. 1. […] Two separated experiments were performed as follows. a) With NADPH: 10 μL of 20 mg/mL liver microsomes and 40 μL of 10 mM NADPH were added to the incubations. […] The final concentration of microsomes was 0.5 mg/mL. 3. The reaction was started with the addition of 4 μL of 200 μM control compound or test compound solutions. Verapamil was used as positive control in this study. The final concentration of test compound or control compound was 2 μM. 4. Aliquots of 50 μL were taken from the reaction solution at 0, 15, 30, 45 and 60 min. […] Samples were centrifuged at 3,220 g for 40 minutes. A 90 μL aliquot of the supernatant was mixed with 90 μL of ultra-pure H2O and then used for LC-MS/MS analysis. 5. Data analysis. All calculations were carried out using Microsoft Excel. Peak areas were determined from extracted ion chromatograms. The slope value, k, was determined by linear regression of the natural logarithm of the remaining percentage of the parent drug vs. incubation time curve. The in vitro half-life (in vitro t1/2) was determined from the slope value: in vitro t1/2=−(0.693)/k.

Series [7] can be described thus: Pharmacokinetic assay in mouse (IV 3 mg/kg, PO 10 mg/kg). The note with it: Male CD1 mouse; for Mouse F: oral bioavailability; for Mouse F / half-life: PO 10 mg/kg; for half-life / Vd: plasma; for half-life: read-out: Mouse t1/2 (converted); for Vd: volume of distribution, read-out: Mouse Vss. The series is classed as in vivo.
Excerpt: as §2, §3, §4, §5, §6, §7, §8, §9

Where [8] appears, read: rat liver microsomes 0.5 mg/mL, 2 μM compound.

Molecules are shown by their SMILES.

MCT1, sequence (P53985 whole entry): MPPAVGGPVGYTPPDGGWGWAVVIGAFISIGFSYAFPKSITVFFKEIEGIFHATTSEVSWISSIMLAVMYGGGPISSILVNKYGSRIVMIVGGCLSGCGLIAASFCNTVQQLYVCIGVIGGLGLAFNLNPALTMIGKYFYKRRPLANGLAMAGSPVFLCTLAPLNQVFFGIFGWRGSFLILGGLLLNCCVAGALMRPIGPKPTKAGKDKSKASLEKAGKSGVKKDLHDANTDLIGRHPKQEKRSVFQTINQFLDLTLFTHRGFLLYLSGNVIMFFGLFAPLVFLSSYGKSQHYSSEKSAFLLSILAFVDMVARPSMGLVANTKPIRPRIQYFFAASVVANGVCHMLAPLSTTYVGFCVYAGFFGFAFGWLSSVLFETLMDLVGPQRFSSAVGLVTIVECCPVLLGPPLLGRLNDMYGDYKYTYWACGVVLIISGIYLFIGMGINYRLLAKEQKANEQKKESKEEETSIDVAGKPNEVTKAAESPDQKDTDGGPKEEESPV
MCT1, sequence (P35613 140-385 partner): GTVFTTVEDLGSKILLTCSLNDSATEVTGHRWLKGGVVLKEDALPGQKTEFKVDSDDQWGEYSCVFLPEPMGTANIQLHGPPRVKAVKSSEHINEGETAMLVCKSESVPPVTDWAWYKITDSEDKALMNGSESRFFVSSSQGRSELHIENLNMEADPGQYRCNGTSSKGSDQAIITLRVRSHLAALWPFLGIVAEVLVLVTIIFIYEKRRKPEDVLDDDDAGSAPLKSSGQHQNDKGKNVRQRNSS

As for `Cc1ccccc1-n1nc(COC(C)(C)C(=O)O)cc1-c1cccc(OC2CCC2)c1` [Example 161, 2-([5-(3-Cyclobutoxyphenyl)-1-(2-methyl-phenyl)-1H-pyrazol-3-yl]methoxy)-2-methylpropanoic acid], inhibition at MCT1 was half-maximal at 22000 nM (IC50). Besides, in [1], the “Mouse microsome t1/2, min” value is “∞” and the “Mouse microsome % 60 min” value was 99%. In addition, the “Difference in Weight Bearing, Minimal Efficacious Dose” value in series [2] is recorded as ≤10 mg/kg. In series [3], the half-life at 2 µM is 3.23 h and the “Human microsome % 60 min” value amounted to 82%. Further, at MCT4, inhibition was half-maximal at 3.3 nM (IC50). Also, in series [4], the “Rat F” value was 61%, the half-life is 5.7 h and the Vd came to 0.32 L/kg. Besides, in series [5], the “Mechanical Allodynia (Von Frey), Minimal Efficacious Dose” value is ≤10 mg/kg. Further, in [6] (setting [8]), the half-life at 2 µM worked out at 4.32 h. In addition, the “Rat microsome % 60 min” value in series [6] worked out at 80%.

For the compound `Cn1ncc2cccc(-n3nc(COC(C)(C)C(=O)O)cc3-c3cccc(OCC(C)(C)C)c3)c21` [Example 167, 2-([5-[3-(2,2-dimethylpropoxy)phenyl]-1-(1-methyl-1H-indazol-7-yl)-1H-pyrazol-3-yl]-methoxy)-2-methylpropanoic acid], at MCT1, 36000 nM corresponded to half-maximal inhibition (IC50). Moreover, in series [1], the half-life at 2 µM came out at 7.17 h and the “Mouse microsome % 60 min” value is given as 97%. Besides, in series [3], the half-life at 2 µM turned out to be 4.17 h and the “Human microsome % 60 min” value is on record as 84%. In series [7], the “Mouse F” value was 24%, the half-life is 1.7 h and the Vd came out at 2.6 L/kg. In addition, the IC50 (usually the concentration that gives 50% inhibition) on MCT4 came out at 0.59 nM. Moreover, in series [4], the “Rat F” value was 72%, the half-life is 2.2 h and the Vd was 1.2 L/kg. In addition, the half-life at 2 µM in series [6] (setting [8]) came out at 1.23 h. In addition, the “Rat microsome % 60 min” value in [6] worked out at 72%.

Consider `CC(C)(OCc1cc(-c2cccc(OC3CCC3)c2)n(-c2ccccc2Cl)n1)C(=O)O` [Example 175, 2-([1-(2-Chlorophenyl)-5-(3-cyclobutoxy-phenyl)-1H-pyrazol-3-yl]methoxy)-2-methylpropanoic acid], for which, in series [1], the half-life at 2 µM is 11.8 h and the “Mouse microsome % 60 min” value is on record as 94%. In addition, in [2], the “Difference in Weight Bearing, Minimal Efficacious Dose” value was >10 mg/kg. For the same compound, in series [3], the half-life at 2 µM worked out at 3.53 h and the “Human microsome % 60 min” value is given as 83%. Further, in series [4], the “Rat F” value worked out at 48%, the half-life is 4.2 h and the Vd came out at 0.4 L/kg. In series [5], the “Mechanical Allodynia (Von Frey), Minimal Efficacious Dose” value was >10 mg/kg. Further, in series [6] (setting [8]), the half-life at 2 µM came out at 5.25 h. Further, the “Rat microsome % 60 min” value in [6] is on record as 87%.

In turn, `CCOc1ccccc1Cn1nc(COC(C)(C)C(=O)O)cc1-c1cc(OC)cc(OC)c1` [Example 211] yielded an IC50 against MCT1 of 20000 nM. In series [1], the half-life at 2 µM was determined as 0.817 h and the “Mouse microsome % 60 min” value amounted to 43%. In [3], the half-life at 2 µM came out at 3 h and the “Human microsome % 60 min” value amounted to 78%. Moreover, in [7], the “Mouse F” value came out at 57%, the half-life was 1.9 h and the Vd came out at 1.5 L/kg. This compound yielded an IC50 on MCT4 of 2.4 nM. In series [4], the “Rat F” value amounted to 55%, the half-life was 3.6 h and the Vd was 3.6 L/kg. Moreover, in series [6] (setting [8]), the half-life at 2 µM stood at 1.22 h. Moreover, in series [6], the “Rat microsome % 60 min” value is listed as 57%.

At MCT1, `CCn1ncc2ccc(-c3cc(COC(C)(C)C(=O)O)nn3-c3ccccc3N3CCC3)cc21` [Example 228, 2-([1-(2-(Azetidin-1-yl)phenyl]-5-(1-ethyl-1H-indazol-6-yl)-1H-pyrazol-3-yl]-methoxy)-2-methylpropanoic acid] gave a half-maximal inhibitory concentration (IC50) of 31000 nM. Besides, in series [1], the half-life at 2 µM worked out at 12.8 h and the “Mouse microsome % 60 min” value is 96%. In series [3], the half-life at 2 µM worked out at 2.17 h and the “Human microsome % 60 min” value amounted to 71%. Also, in series [7], the “Mouse F” value was found to be 100%, the half-life is 4.4 h and the Vd is 2 L/kg. This compound also showed an IC50 against MCT4 of 5.9 nM. For the same compound, in series [4], the “Rat F” value is listed as 94%, the half-life is 3.1 h and the Vd worked out at 1.3 L/kg. Moreover, the half-life at 2 µM in series [6] (setting [8]) was 6.58 h. The “Rat microsome % 60 min” value in [6] is reported as 91%.

The compound `COc1cc(OC)cc(-c2cc(COC(C)(C)C(=O)O)nn2-c2ccccc2N2CCC2)c1` [Example 251, 2-((1-(2-(Azetidin-1-yl)phenyl)-5-(3,5-dimethoxyphenyl)-1H-pyrazol-3-yl)methoxy)-2-methylpropanoic acid] gave a 50% inhibitory concentration (IC50) on MCT1 of 98000 nM. Further, in [1], the half-life at 2 µM came out at 1.55 h and the “Mouse microsome % 60 min” value came to 63%. In addition, in series [3], the half-life at 2 µM came out at 3.02 h and the “Human microsome % 60 min” value stood at 77%. The compound also displayed an IC50 at MCT4 of 5.6 nM. Moreover, in series [4], the “Rat F” value is 98%, the half-life was 3 h and the Vd was found to be 0.38 L/kg. Further, the half-life at 2 µM in [6] (setting [8]) was determined as 3.02 h. The “Rat microsome % 60 min” value in [6] is on record as 83%.

Turning to `CCn1ncc2ccc(-c3cc(CO[C@@](C)(CC)C(=O)O)nn3Cc3ccccc3Cl)cc21` [Example 257, (S)-2-((1-(2-chlorobenzyl)-5-(1-ethyl-1H-indazol-6-yl)-1H-pyrazol-3-yl)methoxy)-2-methylbutanoic acid], the IC50 on MCT1 was 19000 nM. Further, in series [1], the “Mouse microsome t1/2, min” value is “∞” and the “Mouse microsome % 60 min” value is reported as 102%. Also, in series [3], the half-life at 2 µM amounted to 21.6 h and the “Human microsome % 60 min” value was found to be 96%. In series [7], the “Mouse F” value came to 76%, the half-life is 3.6 h and the Vd amounted to 2.8 L/kg. The compound also showed an IC50 on MCT4 of 0.35 nM. Also, in [4], the “Rat F” value was 76%, the half-life is 2.7 h and the Vd was 1.6 L/kg. Further, the “Rat microsome t1/2, min” value in series [6] (setting [8]) is “∞”. Besides, in [6], the “Rat microsome % 60 min” value is listed as 103%.

Turning to `CCn1ncc2ccc(-c3cc(CO[C@](C)(CC)C(=O)O)nn3-c3ccccc3N3CCC3)cc21` [Example 269, (2R)-2-([1-[2-(Azetidin-1-yl)phenyl]-5-(1-ethyl-1H-indazol-6-yl)-1H-pyrazol-3-yl]methoxy)-2-methylbutanoic acid], the IC50 at MCT1 was determined as 58000 nM. In addition, in [7], the “Mouse F” value came to 100%, the half-life was 3.3 h and the Vd is 1.3 L/kg. Besides, the 50% inhibitory concentration (IC50) at MCT4 amounted to 1 nM.
